Experimental data from ChEMBL document CHEMBL1131262, “Comprehensive study on structure-activity relationships of rifamycins: discussion of molecular and crystal structure and spectroscopic and thermochemical properties of rifamycin O” (J Med Chem, 1998).
In brackets after ≈: the same amount, converted by molar mass. Activity calls are given as the source filed them. The calls are words filed in the database; no cut-off is given here.

What was measured:
Nucleic Acid [1] = experiment: Inhibitory concentration against DNA dependent RNA polymerase in Escherichia coli; type: nucleic-acid assay
Escherichia coli [2] = experiment: The compound is evaluated for inhibitory concentration against Escherichia coli and is expressed as minimum inhibitory concentration (MIC).; type: functional
Nucleic Acid [3] = experiment: Inhibitory concentration against DNA dependent RNA polymerase in E. coli; Non active; type: nucleic-acid assay, Escherichia coli
Escherichia coli [4] = experiment: The compound is evaluated for inhibitory concentration against Escherichia coli and is expressed as minimum inhibitory concentration (MIC); Non active; type: functional, organism-based
Escherichia coli [5] = experiment: The compound is evaluated for inhibitory concentration against Escherichia coli and is expressed as minimum inhibitory concentration (MIC); active; type: functional, organism-based
[6] = Escherichia coli, read-out: MIC

IC50 (Nucleic Acid [1]) [nM/unit]	IC50 (Nucleic Acid [3])	MIC (Escherichia coli [4])	SMILES	further results
50	–	–	COC1/C=C/OC2(C)Oc3c(C)c(O)c4c(c3C2O)C(=O)C=C(NC(=O)/C(C)=C\C=C\C(C)C(O)C(C)C(O)C(C)C(OC(C)=O)C1C)C4=O (configuration not stated)	–
85	–	–	CO[C@H]1/C=C/O[C@@]2(C)Oc3c(C)c(O)c4c(O)c(cc(O)c4c3C2=O)NC(=O)/C(C)=C\C=C\[C@H](C)[C@H](O)[C@@H](C)[C@@H](O)[C@@H](C)[C@H](OC(C)=O)[C@@H]1C (stereo in doubt; form 2) [RIFAMYCIN]	MIC (Escherichia coli [2]): 25 µg/mL (≈ 35.8 µM)
20	–	–	COC(=O)C1=C2NC(=O)/C(C)=C\C=C\C(C)C(O)C(C)C(O)C(C)C(OC(C)=O)C(C)C(OC)/C=C/OC3(C)Oc4c(C)c(O)c(c(c4C3=O)C1=O)C2=O (configuration not stated)	–
–	–	inactive	COC1=N/C2=CC(=O)c3c(c(O)c(C)c4c3C(=O)C(C)(O/C=C/C(OC)C(C)C(OC(C)=O)C(C)C(O)C(C)C(O)C(C)\C=C/C=C\1C)O4)C2=O (configuration not stated)	–
50	–	–	COC1/C=C/OC2(C)Oc3c(C)c(O)c4c(c3C2=O)C(=O)C=C(NC(=O)/C(C)=C\C=C\C(C)C(O)C(C)C(O)C(C)C(OC(C)=O)C1C)C4=O (configuration not stated)	MIC (Escherichia coli [2]; [6]): 12 µg/mL (≈ 17.2 µM)
15	–	–	CO[C@H]1/C=C/O[C@@]2(C)Oc3c(C)c(O)c4c(O)c(cc(O)c4c3C2=O)NC(=O)/C(C)=C\C=C\[C@H](C)[C@H](O)[C@@H](C)[C@@H](O)[C@@H](C)[C@H](OC(C)=O)[C@@H]1C (stereo in doubt; form 1) [RIFAMYCIN]	MIC (Escherichia coli [2]): 3 µg/mL (≈ 4.3 µM)
–	Not Active	–	COC1=N\C2=CC(=O)c3c(c(O)c(C)c4c3C(=O)C(C)(O/C=C/C(OC)C(C)C(OC(C)=O)C(C)C(O)C(C)C(O)C(C)/C=C/C=C\1C)O4)C2=O (configuration not stated)	–

The next lines start with the molecule.

SMILES	IC50 (Nucleic Acid [1]) [nM/unit]	IC50 (Nucleic Acid [3])	MIC (Escherichia coli [4])	further results
CO[C@H]1/C=C/O[C@@]2(C)Oc3c(C)c(O)c4c(O)c(c(/C=N/N5CCN(C)CC5)c(O)c4c3C2=O)NC(=O)/C(C)=C\C=C\[C@H](C)[C@H](O)[C@@H](C)[C@@H](O)[C@@H](C)[C@H](OC(C)=O)[C@@H]1C [RIFAMPIN]	–	–	–	MIC (Escherichia coli [2]; [6]): 20 µg/mL (≈ 24.3 µM)
COC1/C=C/OC2(C)Oc3c(C)c(O)c4c(O)c(cc(OCC(=O)Nc5ccc(I)cc5)c4c3C2=O)NC(=O)/C(C)=C\C=C\C(C)(O)C(=O)C(C)C(O)C(C)C(OC(C)=O)C1C (configuration not stated)	–	Not Active	inactive	–
COC1/C=C/OC2(C)Oc3c(C)c(O)c4c(c3C2=O)C2(C=C(NC(=O)/C(C)=C\C=C\C(C)C(O)C(C)C(O)C(C)C(OC(C)=O)C1C)C4=O)OCC(=O)O2 (configuration not stated)	–	–	–	MIC (Escherichia coli [2]; [6]): 75 µg/mL (≈ 99.5 µM)
COC1/C=C/C2OC3(C)C4c5c(c(C)c(O)c6c5C(=O)C=C(NC(=O)/C(C)=C\C=C\C(C)C5OC(C)(C)OC(C(C)C(O)C1C)C5C)C6=O)OC43O2 (configuration not stated)	–	Not Active	inactive	–
COC1/C=C/OC2(C)Oc3c(C)c(O)c4c(c3C2=O)-c2[n-]c3ccc(Br)c[n+]3c2/C(=N/C(=O)/C(C)=C\C=C\C(C)C(O)C(C)C(O)C(C)C(OC(C)=O)C1C)C4=O (configuration not stated)	–	–	–	MIC (Escherichia coli [5]): Active
CCN(CC)c1nc2c(s1)c1c(O)c3c(O)c(C)c4c(c32)C(=O)[C@@](C)(O/C=C/[C@H](OC)[C@@H](C)[C@@H](OC(C)=O)[C@H](C)[C@H](O)[C@H](C)[C@@H](O)[C@@H](C)/C=C/C=C(/C)C(=O)N1)O4 [RIFAMEXIL]	–	–	–	MIC (Escherichia coli [2]; [6]): 32 µg/mL (≈ 39.5 µM)
COC1/C=C/OC2(C)Oc3c(C)c(O)c4c(c3C2=O)C(=O)C=C(NC(=O)/C(C)=C\C(=O)C2CC2C(O)C(C)C(O)C(C)C(OC(C)=O)C1C)C4=O (configuration not stated) [TOLYPOMYCINONE]	–	Not Active	inactive	–
COC1/C=C/OC2(C)Oc3c(C)c(O)c4c(c3C2=O)C(=O)C=C(NC(=O)C(C)CCCC(C)C(O)C(C)C(O)C(C)C(OC(C)=O)C1C)C4=O (configuration not stated)	1600	–	–	–
COC1/C=C/OC2(C)Oc3c(C)c(O)c4c(c3C2O)C(=O)C=C(NC(=O)/C(C)=C\C=C\C(C)C2OC(C)(C)OC(C(C)C(O)C1C)C2C)C4=O (configuration not stated)	–	Not Active	inactive	–
COC1/C=C/OC2(C)Oc3c(C)c(O)c4c(c3C2O)C(=O)C=C(NC(=O)/C(C)=C\C=C\C(C)C(OC(C)=O)C(C)C(O)C(C)C(OC(C)=O)C1C)C4=O (configuration not stated)	–	Not Active	inactive	–
COc1c(C)c2c3c4c(O)cc5c(c14)OC(N5)/C(C)=C\C=C\C(C)C(O)C(C)C(O)C(C)C(OC(C)=O)C(C)C(OC)/C=C/OC(C)(O2)C3=O (configuration not stated)	–	Not Active	inactive	–
